Results taken from patent US20240261279A1, “METHOD FOR TREATING LUNG CANCER” (priority 2021, published 2024).

Tested on: nuclear protein kinase C-δ
Assay: confocal-based high-content screening measuring the quantity of nuclear protein kinase C-δ in GR10 cells
Type: cell-based
Details: 24 hours treatment, fluorescence intensity (FIG. 3)
Text: Please refer to FIG. 1. […] To investigate the growth-inhibiting effect of the nuclear protein kinase C-δ inhibitor of the present disclosure on the non-small-cell lung cancer cells resistant to the epidermal growth factor receptor-tyrosine kinase inhibitor, the present experimental example utilizes the screening system shown in FIG. 1 to measure whether the nuclear protein kinase C-δ inhibitor of the present disclosure can inhibit the production of nuclear protein kinase C-δ in the cancer cells.
In the present experimental example, gefitinib-resistant non-small-cell lung cancer cells (gefitinib-resistant 10 cells, hereinafter “GR10 cells”) are used as the cell model. In Example 1 to Example 4, GR10 cells are respectively treated with nintedanib esylate (hereinafter “Nin”), ponatinib (hereinafter “Pon”), regorafenib (hereinafter “Reg”) or cobimetinib (hereinafter “Cob”) for 24 hours, and the quantity of nuclear protein kinase C-δ within the GR10 cells is determined by confocal-based high-content image analysis. On the other hand, the present experimental example further includes Comparative Example 1 and Comparative Example 2. […]
Please refer to FIG. 2A to FIG. 2F and FIG. 3. […] FIG. 3 is a comparative diagram of fluorescence intensity of the GR10 cells after treatment of Example 1 to Example 4, Comparative Example 1 and Comparative Example 2. […]

Cc1ccc(C(=O)Nc2ccc(CN3CCN(C)CC3)c(C(F)(F)F)c2)cc1C#Cc1cnc2cccnn12 [Pon, ponatinib]
concentration at which a great ability to inhibit nuclear protein kinase C-δ is performed: greater than 0.1 μM
